Reference: paper PMC8151276, “An Integrated Approach toward NanoBRET Tracers for Analysis of GPCR Ligand Engagement” (Molecules, 2021)

Experiments:
CCKAR = target: T1, CCKAR (Homo sapiens, UniProt P32238); assay: NanoBRET screen HiBiT-CCKAR in HEK293; type: binding
T1 construct: purchased Promega (in-house HiBiT-GPCR construct library, NanoBRET)
T1 sequence (P32238 1-428): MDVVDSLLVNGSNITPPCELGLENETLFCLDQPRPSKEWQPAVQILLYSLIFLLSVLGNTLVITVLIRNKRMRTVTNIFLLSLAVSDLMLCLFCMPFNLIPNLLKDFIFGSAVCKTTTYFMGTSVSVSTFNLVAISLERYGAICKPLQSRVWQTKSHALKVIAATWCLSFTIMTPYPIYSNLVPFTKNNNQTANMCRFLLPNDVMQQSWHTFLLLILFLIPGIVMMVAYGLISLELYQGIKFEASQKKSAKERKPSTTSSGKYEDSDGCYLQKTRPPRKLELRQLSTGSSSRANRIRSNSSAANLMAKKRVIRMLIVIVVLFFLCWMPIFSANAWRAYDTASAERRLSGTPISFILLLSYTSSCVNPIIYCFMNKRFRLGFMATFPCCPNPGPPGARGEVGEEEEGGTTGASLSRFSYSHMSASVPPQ
Description: (§1) Each tracer candidate was screened across the entire library of HiBiT-GPCR constructs using NanoBRET as the detection modality. As depicted in Figure 4A, the specificity of interactions was evaluated through decrease in BRET due to competitive displacement of a bound tracer by excess parental compound. Each tracer was analyzed for binding to each HiBiT-GPCR fusion in the absence and in the presence of competing parental compound. Briefly, HEK293 cells were transfected with HiBiT-GPCR constructs diluted into promoterless DNA to reduce expression and maximize translocation to the cell surface. Each tracer candidate was then screened at concentrations of 1 μM and 0.1 μM across cells expressing these fusions. Cells were treated for 1.5 h with tracer either alone or in the presence of 20 μM competing parental compound (i.e., control). BRET was measured upon addition of purified LgBiT and subsequent complementation with HiBiT genetically fused to a GPCR. The specificity of interactions was assessed through a decrease in BRET signal due to competitive displacement of the bound tracer. To further gauge the robustness of these interactions, the fold response over the control (i.e., BRETtracer/BRETcontrol) was calculated. We chose a 1.5-fold response, which translates to ≥7-fold signal over noise as the minimal threshold required to score an interaction as positive. […]. Below we highlight the screening results obtained for our exemplary fluorescent tracers based on Clozapine, Amitriptyline and AZD1283.
(§2) HiBiT-GPCR DNA constructs were diluted in 10 mM Tris pH 8 to a final concentration of 0.01 μg/μL, arrayed in 96-well plates and stored at −20 °C. For transfection, HEK293 cells were suspended in Opti-MEM (without phenol red) supplemented with 2% fetal bovine serum (Seradigm) and 100 units/mL penicillin–streptomycin (Gibco) at a final concentration of 220,000 cells/mL and dispensed into white 96-well plates at 90 μL/well. Subsequent transfections and screens were carried using an Agilent Bravo Automated Liquid Handling Platform. First, the 96-well HiBiT DNA arrays were diluted 25-fold in Opti-MEM (without serum or phenol red) to a final concentration of 0.0004 μg/μL and 20 μL of the diluted DNAs were transferred into new 96-well plates. Next, promoterless carrier DNA (1 μg/μL) was diluted 25-fold (0.04 μg/μL) and then dispensed into the diluted arrays at 20 μL/well. Following brief mixing, Viafect transfection reagent (Promega) diluted 16-fold into Opti-MEM was dispensed into the plates at 40 μL/well. After mixing by pipetting, plates were incubated for 10 min on the pipetting station deck. The DNA-transfection reagent complexes were then added to plates containing cells. To facilitate the screen, 10 μL of DNA-transfection reagent complexes were added in duplicates to the top 4 and bottom 4 rows, resulting in two identical 48-well arrays per plate. Plates with transfected cells were incubated for 18–20 h at 37 °C/5% CO2. A screen of each tracer across the entire library using two different concentrations requires duplicate plates of transfected cells. Depending on the number of tracers being screened, transfections can be scaled up using the same ratios. The next day, for each tracer, four 20× screening solutions in tracer dilution buffer (Promega) were prepared: two duplicates at final concentration of 20 μM and two duplicates at a final concentration of 2 μM. A competing unmodified compound was added to one of each duplicate at a final concentration of 400 μM. The four resulting solutions were diluted 4-fold in Opti-MEM without serum or phenol red to generate 5× solutions (5 µM and 0.5 µM tracer +/− 100 μM competing compound). To screen the library, a BioTek MultiFlo FX liquid dispenser was used to dispense 22.5 µL of tracer solution to the top 4 rows and 22.5 µL tracer + competing compound solution to the 4 bottom rows. Plates were briefly mixed on an orbital shaker and incubated for 1.5 h at room temperature. […]

GABBR1 = target: T2, GABBR1 (Homo sapiens, UniProt Q9UBS5); assay: NanoBRET screen HiBiT-GABBR1 in HEK293; type: binding
T2 construct: purchased Promega (in-house HiBiT-GPCR construct library, NanoBRET)
Description: as §1, §2

[1] = tracer at 0.1μM, listed as amitriptyline-b-2-NB590
[2] = tracer at 1μM, listed as amitriptyline-b-2-NB590

T2 sequence (Q9UBS5 15-961 limits assumed): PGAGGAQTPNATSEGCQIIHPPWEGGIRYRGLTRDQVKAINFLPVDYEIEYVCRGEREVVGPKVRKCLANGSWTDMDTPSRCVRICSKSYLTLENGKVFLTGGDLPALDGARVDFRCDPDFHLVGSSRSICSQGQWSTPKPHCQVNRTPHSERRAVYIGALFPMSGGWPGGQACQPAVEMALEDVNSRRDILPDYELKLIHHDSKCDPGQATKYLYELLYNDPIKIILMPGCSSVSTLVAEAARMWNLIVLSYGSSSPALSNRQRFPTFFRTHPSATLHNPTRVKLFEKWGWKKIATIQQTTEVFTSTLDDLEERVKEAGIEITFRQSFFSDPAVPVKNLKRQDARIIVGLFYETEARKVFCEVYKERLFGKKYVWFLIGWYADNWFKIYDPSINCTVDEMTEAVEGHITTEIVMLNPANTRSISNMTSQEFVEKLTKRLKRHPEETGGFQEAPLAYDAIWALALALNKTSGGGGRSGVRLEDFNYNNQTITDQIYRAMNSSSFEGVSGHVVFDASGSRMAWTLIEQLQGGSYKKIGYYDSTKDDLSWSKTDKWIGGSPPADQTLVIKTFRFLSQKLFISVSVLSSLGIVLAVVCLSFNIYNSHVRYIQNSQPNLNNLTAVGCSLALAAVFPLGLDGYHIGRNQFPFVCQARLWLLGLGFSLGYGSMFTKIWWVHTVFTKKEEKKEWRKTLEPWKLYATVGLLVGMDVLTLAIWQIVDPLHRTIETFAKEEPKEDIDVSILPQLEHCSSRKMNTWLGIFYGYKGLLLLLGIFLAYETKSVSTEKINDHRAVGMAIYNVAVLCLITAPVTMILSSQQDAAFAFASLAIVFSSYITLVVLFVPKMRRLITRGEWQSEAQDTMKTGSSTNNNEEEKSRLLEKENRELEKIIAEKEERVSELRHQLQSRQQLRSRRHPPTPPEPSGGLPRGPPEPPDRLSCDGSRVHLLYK

| Compound | NanoBRET Fold Response (CCKAR; CCKAR, tracer 0.1μM) | NanoBRET Fold Response (CCKAR; CCKAR, tracer 1μM) | NanoBRET Fold Response (GABBR1; GABBR1, tracer 0.1μM) | NanoBRET Fold Response (GABBR1; GABBR1, tracer 1μM) | further results |
| --- | --- | --- | --- | --- | --- |
| COc1ccc2c(n1)c(CCNC(C)=O)cn2CCNC(=O)CCc1ccc2n1[B-](F)(F)[N+]1=C(c3ccc[nH]3)C=CC1=C2 [Azamelatonin-1-NB590] |  |  |  |  | NanoBRET Fold Response (CCKAR; 0.1μM tracer): 1.21; NanoBRET Fold Response (CCKAR; 1μM tracer): 0.96; NanoBRET Fold Response (GABBR1; 0.1μM tracer): 1.44; NanoBRET Fold Response (GABBR1; 1μM tracer): 1.44 |
| CC(C)N(CC[C@H](c1ccccc1)c1cc(CCNC(=O)c2ccc(CNC(=O)CCc3ccc4n3[B-](F)(F)[N+]3=C(c5ccc[nH]5)C=CC3=C4)cc2)ccc1O)C(C)C [Tolterodine-BZ-NB590] | 1.05 | 1.03 | 0.92 | 0.87 |  |
| O=C(CCc1ccc2n1[B-](F)(F)[N+]1=C(c3ccc[nH]3)C=CC1=C2)NCCOCCOCCNC(=O)OCCOCCN1CCN(C2=Nc3ccccc3Sc3ccccc32)CC1 [Quetiapine-a-2-NB590] | 1.04 | 0.94 | 1.22 | 0.93 |  |
| Cc1cc2c(s1)Nc1ccccc1N=C2N1CCN(CCCNC(=O)CCOCCOCCOCCOCCNC(=O)CCc2ccc3n2[B-](F)(F)[N+]2=C(c4ccc[nH]4)C=CC2=C3)CC1 [Olanzapine-a-2-NB590] | 1.02 | 1.04 | 0.94 | 1.20 |  |
| O=C(CCc1ccc2n1[B-](F)(F)[N+]1=C(c3ccc[nH]3)C=CC1=C2)NCc1ccc(C(=O)NCCOCCOCCNCC(O)COc2cccc3ccccc23)cc1 (stereo not shown) [Propranolol-3-NB590] |  |  |  |  | NanoBRET Fold Response (CCKAR; CCKAR, 0.1μM): 0.99; NanoBRET Fold Response (CCKAR; CCKAR, 1μM): 0.98; NanoBRET Fold Response (GABBR1; GABBR1, 0.1μM): 1.10; NanoBRET Fold Response (GABBR1; GABBR1, 1μM): 1.05 |
| CN1CCN(C2=Nc3cc(Cl)ccc3N(CC(=O)NCCOCCOCCOCCOCCNC(=O)CCc3ccc4n3[B-](F)(F)[N+]3=C(c5ccc[nH]5)C=CC3=C4)c3ccccc32)CC1 [Clozapine-c-2-NB590] |  |  |  |  | NanoBRET Fold Response (CCKAR; CCKAR, 0.1μM tracer): 1.01; NanoBRET Fold Response (CCKAR; CCKAR, 1μM tracer): 0.74; NanoBRET Fold Response (GABBR1; GABBR1, 0.1μM tracer): 0.97; NanoBRET Fold Response (GABBR1; GABBR1, 1μM tracer): 0.89 |
| O=C(CCc1ccc2n1[B-](F)(F)[N+]1=C(c3ccc[nH]3)C=CC1=C2)NCc1ccc(C(=O)NCCOCCC(=O)N[C@@H]2CC[C@@]3(O)[C@H]4Cc5ccc(O)c6c5[C@@]3(CCN4CC3CC3)[C@H]2O6)cc1 [Naltrexone-3-NB590] | 1.10 | 1.05 | 0.93 | 0.49 |  |
| CC(C)N(CC[C@H](c1ccccc1)c1cc(CCNC(=O)CCOCCOCCOCCOCCNC(=O)CCc2ccc3n2[B-](F)(F)[N+]2=C(c4ccc[nH]4)C=CC2=C3)ccc1O)C(C)C [Tolterodine-2-NB590] | 1.01 | 1.01 | 1.32 | 1.14 |  |
| Cc1nc2n(c(=O)c1CCN1CCC(c3noc4cc(F)ccc34)CC1)CCCC2OC(=O)NCCOCCOCCOCCOCCNC(=O)CCc1ccc2n1[B-](F)(F)[N+]1=C(c3ccc[nH]3)C=CC1=C2 (stereo not shown) [Risperidone-2-NB590] | 1.20 | 0.99 | 1.09 | 0.87 |  |
| O=C(CCOCCOCCOCCOCCNC(=O)CCc1ccc2n1[B-](F)(F)[N+]1=C(c3ccc[nH]3)C=CC1=C2)NCCCN1CCN(C2=Nc3cc(Cl)ccc3Nc3ccccc32)CC1 [Clozapine-a-2-NB590] |  |  |  |  | NanoBRET Fold Response (CCKAR; CCKAR, 0.1μM tracer): 1.01; NanoBRET Fold Response (CCKAR; CCKAR, 1μM tracer): 0.85; NanoBRET Fold Response (GABBR1; GABBR1, 0.1μM tracer): 0.96; NanoBRET Fold Response (GABBR1; GABBR1, 1μM tracer): 1.33 |
| COc1ccc2[nH]c(-c3ccc(CNC(=O)CCOCCOCCOCCOCCNC(=O)CCc4ccc5n4[B-](F)(F)[N+]4=C(c6ccc[nH]6)C=CC4=C5)cc3)c(CCNC(C)=O)c2n1 [AzomelatoninICO9-2-NB590] |  |  |  |  | NanoBRET Fold Response (CCKAR; 0.1μM tracer): 1.06; NanoBRET Fold Response (CCKAR; 1μM tracer): 1.04; NanoBRET Fold Response (GABBR1; 0.1μM tracer): 0.66; NanoBRET Fold Response (GABBR1; 1μM tracer): 0.57 |
| CN1CCN(C2=Nc3cc(Cl)ccc3Nc3ccc(CNC(=O)CCOCCOCCOCCOCCNC(=O)CCc4ccc5n4[B-](F)(F)[N+]4=C(c6ccc[nH]6)C=CC4=C5)cc32)CC1 [Clozapine-b-2-NB590] |  |  |  |  | NanoBRET Fold Response (CCKAR; CCKAR, 0.1μM tracer): 1.02; NanoBRET Fold Response (CCKAR; CCKAR, 1μM tracer): 0.88; NanoBRET Fold Response (GABBR1; GABBR1, 0.1μM tracer): 0.93; NanoBRET Fold Response (GABBR1; GABBR1, 1μM tracer): 1.38 |
| COc1ccccc1N1CCN(CCCCN2C(=O)c3ccc(CNC(=O)CCOCCNC(=O)c4ccc(CNC(=O)CCc5ccc6n5[B-](F)(F)[N+]5=C(c7ccc[nH]7)C=CC5=C6)cc4)cc3C2=O)CC1 [NAN-190-3-NB590] | 0.98 | 0.99 | 0.80 | 1.07 |  |
| N#CN=C(NCCCOc1cccc(CN2CCCCC2)c1)NCCNC(=O)CCOCCOCCOCCOCCNC(=O)CCc1ccc2n1[B-](F)(F)[N+]1=C(c3ccc[nH]3)C=CC1=C2 [Aminopotentidine-2-NB590] | 0.98 | 1.04 | 1.06 | 1.00 |  |
| CN(C)CCC=C1c2ccccc2CCc2ccc(C(=O)NCCNC(=O)CCOCCOCCOCCOCCNC(=O)CCc3ccc4n3[B-](F)(F)[N+]3=C(c5ccc[nH]5)C=CC3=C4)cc21 [Amitriptyline-b-2-NB590] |  |  |  |  | NanoBRET Fold Response (CCKAR; [1]): 1.11; NanoBRET Fold Response (CCKAR; [2]): 0.98; NanoBRET Fold Response (GABBR1; [1]): 1.11; NanoBRET Fold Response (GABBR1; [2]): 0.85 |
| COc1ccccc1N1CCN(CCCCN2C(=O)c3ccc(CNC(=O)CCOCCOCCOCCOCCNC(=O)CCc4ccc5n4[B-](F)(F)[N+]4=C(c6ccc[nH]6)C=CC4=C5)cc3C2=O)CC1 [NAN-190-2-NB590] | 0.98 | 0.96 | 0.88 | 0.93 |  |
